# Measured values: patent publication US20230233690A1, “ANDROGEN RECEPTOR PROTEIN DEGRADERS” (THE REGENTS OF THE UNIVERSITY OF MICHIGAN, priority 2020, published 2023)
# Where two headings read alike, the source gives them in different places.
# Key:
# [1] = PK parameters in male mice (Table 9); type: in vivo; details: for Vd: read-out: Vss
# Procedure: The pharmacokinetics (PK) of representative Compounds of the Disclosure were evaluated in mice or rats to provide an assessment of their oral bioavaibility. All animal experiments were performed under the guidelines of the University of Michigan Committee for Use and Care of Animals and using an approved animal protocol.
# AR protein = target: T1, AR protein (Homo sapiens, UniProt P10275); assay: Western blotting of AR protein degradation in VCaP cells; type: cell-based; details: for AR protein degradation VCap 10 nM / AR protein degradation VCap 100 nM: 24 hr treatment
# T1 construct: endogenous in cells; host or cells: VCaP
# T1 sequence (P10275 1-920): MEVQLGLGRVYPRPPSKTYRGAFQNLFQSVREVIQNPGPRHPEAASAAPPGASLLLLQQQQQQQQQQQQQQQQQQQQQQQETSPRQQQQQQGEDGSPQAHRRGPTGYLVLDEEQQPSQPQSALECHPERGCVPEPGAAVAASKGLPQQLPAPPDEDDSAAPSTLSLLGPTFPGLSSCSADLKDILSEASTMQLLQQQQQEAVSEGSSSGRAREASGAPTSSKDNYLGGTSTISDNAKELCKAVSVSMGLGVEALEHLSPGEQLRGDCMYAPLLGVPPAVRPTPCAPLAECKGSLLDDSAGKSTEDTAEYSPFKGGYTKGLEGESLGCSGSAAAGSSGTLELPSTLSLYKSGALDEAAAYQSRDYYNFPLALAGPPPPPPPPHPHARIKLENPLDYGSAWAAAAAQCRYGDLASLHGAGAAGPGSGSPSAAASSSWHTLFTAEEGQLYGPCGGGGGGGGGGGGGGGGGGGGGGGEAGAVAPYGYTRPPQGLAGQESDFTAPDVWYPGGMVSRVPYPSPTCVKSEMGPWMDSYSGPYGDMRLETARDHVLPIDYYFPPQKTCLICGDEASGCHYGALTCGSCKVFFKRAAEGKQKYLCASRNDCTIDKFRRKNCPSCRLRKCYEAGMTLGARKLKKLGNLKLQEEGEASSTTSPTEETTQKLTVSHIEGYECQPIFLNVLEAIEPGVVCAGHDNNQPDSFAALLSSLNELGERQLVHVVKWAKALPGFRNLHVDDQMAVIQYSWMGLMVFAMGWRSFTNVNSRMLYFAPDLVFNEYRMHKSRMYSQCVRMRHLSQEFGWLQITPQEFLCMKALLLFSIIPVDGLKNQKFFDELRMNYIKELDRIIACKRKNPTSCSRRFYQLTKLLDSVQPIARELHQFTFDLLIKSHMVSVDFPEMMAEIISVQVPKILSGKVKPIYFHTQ
# Procedure: The treated cells were lysed with RIPA buffer. […] GAPDH was used as a loading control.
# Bands were quantified with ImageJ software. The relative numbers of each band obtained from normalization with its corresponding GAPDH level were compared with Prism 8 software. The DC50 values were produced from Prism 8, and the DC90 values were calculated with an equation=Bottom+(Top−Bottom)/(1+10^((Log EC50−X)*HillSlope) based on DC50 and Hillslope values.
# [2] = ICR, mouse, in vivo, IV 1 mg/kg
# [3] = ICR, mouse, in vivo, IV 2 mg/kg
SMILES,AUC(0-t) ([1]; IV 1 mg/kg) [ng·h/mL],Cl ([1]; IV 1 mg/kg) [mL/min/kg],T1/2 ([1]; IV 1 mg/kg) [h],Vss ([1]; IV 1 mg/kg) [L/kg],AUC(0-t) ([1]; PO 3 mg/kg) [ng·h/mL],Cmax ([1]; PO 3 mg/kg) [ng/mL],T1/2 ([1]; PO 3 mg/kg) [h],Tmax ([1]; PO 3 mg/kg) [h],F ([1]; PO 3 mg/kg vs IV 1 mg/kg) [%],% AR protein degradation in VCaP Cells (AR protein; 0.001 μM) [%],% AR protein degradation in VCaP Cells (AR protein; 0.01 μM) [%],% AR protein degradation in VCaP Cells (AR protein; 0.1 μM) [%],% AR protein degradation in VCaP Cells (AR protein; 1 μM) [%],AR protein degradation VCap 10 nM (AR protein),AR protein degradation VCap 100 nM (AR protein),also measured
"CN(c1ccc(C#N)c(Cl)c1)[C@H]1CC[C@H](NC(=O)c2ccc(N3CCN(CC4CN(c5ccc6c(c5)C(=O)N(C5CCC(=O)NC5=O)C6=O)C4)CC3)cc2)CC1 (stereo partly drawn) [compound 237, N-((1r,4r)-4-((3-chloro-4-cyanophenyl)(methyl)amino)cyclohexyl)-4-(4-((1-(2-(2,6-dioxopiperidin-3-yl)-1,3-dioxoisoindolin-5-yl)azetidin-3-yl)methyl)piperazin-1-yl)benzamide]",1226,13.7,3.8,3.92,1111,127,4.3,5.3,30,,,,,,,
"CN(c1ccc(C#N)c(Cl)c1)[C@H]1CC[C@H](NC(=O)c2ccc(N3CCC(CN4CCN(c5ccc6c(c5)C(=O)N(C5CCC(=O)NC5=O)C6=O)CC4)CC3)cc2)CC1 (stereo partly drawn) [compound 234, N-((1r,4r)-4-((3-chloro-4-cyanophenyl)(methyl)amino)cyclohexyl)-4-(4-((4-(2-(2,6-dioxopiperidin-3-yl)-1,3-dioxoisoindolin-5-yl)piperazin-1-yl)methyl)piperidin-1-yl)benzamide]",693,18.3,12.5,17.6,737.5,45.0,27.0,6.0,35,55,91,93,90,,,
"CN(c1ccc(C#N)c(Cl)c1)[C@H]1CC[C@H](NC(=O)c2ccc(N3CCN(C4CCN(c5ccc6c(c5)C(=O)N(C5CCC(=O)NC5=O)C6=O)CC4)CC3)cc2)CC1 (stereo partly drawn) [Cpd. No. 235, N-((1r,4r)-4-((3-chloro-4-cyanophenyl)(methyl)amino)cyclohexyl)-4-(4-(1-(2-(2,6-dioxopiperidin-3-yl)-1,3-dioxoisoindolin-5-yl)piperidin-4-yl)piperazin-1-yl)benzamide]",3366,4.5,7.6,,3001,256.1,7.0,4.7,29,94,99,99.9,,,,"Vd [1, 2]: 2.64 L/kg"
"CN(c1ccc(C#N)c(Cl)c1)[C@H]1CC[C@H](NC(=O)c2ccc(N3CCN(C4CN(c5ccc6c(c5)C(=O)N(C5CCC(=O)NC5=O)C6=O)C4)CC3)cc2)CC1 (stereo partly drawn) [Cpd. No. 238, N-((1r,4r)-4-((3-chloro-4-cyanophenyl)(methyl)amino)cyclohexyl)-4-(4-(1-(2-(2,6-dioxopiperidin-3-yl)-1,3-dioxoisoindolin-5-yl)azetidin-3-yl)piperazin-1-yl)benzamide]",,,,,,,,,,78,90,89,78,,,AUC(0-t) ([1]; IV 2 mg/kg): 6481 ng·h/mL; Cl ([1]; IV 2 mg/kg): 5 mL/min/kg; T1/2 ([1]; IV 2 mg/kg): 5.5 h; Vss ([1]; IV 2 mg/kg): 1.8 L/kg; AUC(0-t) ([1]; PO 5 mg/kg): 8254 ng·h/mL; Cmax ([1]; PO 5 mg/kg): 1140 ng/mL; T1/2 ([1]; PO 5 mg/kg): 4.6 h; Tmax ([1]; PO 5 mg/kg): 2.0 h; F ([1]; PO 5 mg/kg vs IV 2 mg/kg): 51%
"CCN(c1ccc(C#N)c(Cl)c1)[C@H]1CC[C@H](NC(=O)c2ccc(N3CCC(N4CCN(c5ccc6c(c5)C(=O)N(C5CCC(=O)NC5=O)C6=O)CC4)CC3)cc2)CC1 (stereo partly drawn) [compound 231, N-((1r,4r)-4-((3-chloro-4-cyanophenyl)(ethyl)amino)cyclohexyl)-4-(4-(4-(2-(2,6-dioxopiperidin-3-yl)-1,3-dioxoisoindolin-5-yl)piperazin-1-yl)piperidin-1-yl)benzamide]",,,,,,,,,30,,,,,,,"clearance [1, 2]: 31.2 mL/min/kg; half-life [1, 2]: 4.1 h; AUC(0-t) ([1]; ICR, mouse, in vivo, IV 1 mg/kg, read-out: AUC(0-t)): 539 ng·h/mL; Vd [1, 2]: 4.34 L/kg; half-life ([1]; ICR, mouse, in vivo, PO 3 mg/kg): 2.4 h; AUC(0-t) ([1]; ICR, mouse, in vivo, PO 3 mg/kg, read-out: AUC(0-t)): 492 ng·h/mL; Cmax ([1]; ICR, mouse, in vivo, PO 3 mg/kg, read-out: Cmax): 102 ng/mL; Tmax ([1]; ICR, mouse, in vivo, PO 3 mg/kg, read-out: Tmax): 1.7 h"
"N#Cc1ccc(O[C@H]2CC[C@H](NC(=O)c3ccc(N4CCN(C5CN(c6ccc7c(c6)C(=O)N(C6CCC(=O)NC6=O)C7=O)C5)CC4)cc3)CC2)cc1Cl (stereo partly drawn) [compound 225, N-((1r,4r)-4-(3-chloro-4-cyanophenoxy)cyclohexyl)-4-(4-(1-(2-(2,6-dioxopiperidin-3-yl)-1,3-dioxoisoindolin-5-yl)azetidin-3-yl)piperazin-1-yl)benzamide]",,,,,,,,,,61,48,15,−23,,,"clearance [1, 3]: 4.33 mL/min/kg; half-life [1, 3]: 6.58 h; AUC(0-t) ([1]; ICR, mouse, in vivo, IV 2 mg/kg, read-out: AUC(0-t)): 6760 ng·h/mL; Vd [1, 3]: 2.23 L/kg; half-life ([1]; ICR, mouse, in vivo, PO 5 mg/kg): 5.8 h; AUC(0-t) ([1]; ICR, mouse, in vivo, PO 5 mg/kg, read-out: AUC(0-t)): 13100 ng·h/mL; Cmax ([1]; ICR, mouse, in vivo, PO 5 mg/kg, read-out: Cmax): 2130 ng/mL; Tmax ([1]; ICR, mouse, in vivo, PO 5 mg/kg, read-out: Tmax): 2 h; F ([1]; PO 5 mg/kg vs IV 2 mg/kg): 77%"
"CN(c1ccc(C#N)c(Cl)c1)[C@H]1CC[C@H](NC(=O)c2ccc(N3CCC(N4CCN(c5ccc6c(c5)C(=O)N(C5CCC(=O)NC5=O)C6=O)CC4)CC3)cc2)CC1 (stereo partly drawn) [compound 230, N-((1r,4r)-4-((3-chloro-4-cyanophenyl)(methyl)amino)cyclohexyl)-4-(4-(4-(2-(2,6-dioxopiperidin-3-yl)-1,3-dioxoisoindolin-5-yl)piperazin-1-yl)piperidin-1-yl)benzamide]",2857,,6.6,2.73,3811,251,10.6,5.3,44,,,,,,,"clearance [1, 2]: 5.5 mL/min/kg"
CN(c1ccc(C#N)c(Cl)c1)[C@H]1CC[C@H](NC(=O)c2ccc(N3CCN(C4CCN(c5ccc6c(c5)C(=O)N(C5CCC(=O)NC5=O)C6=O)CC4)CC3)cc2)CC1 (stereo partly drawn) [compound 30],,,,,,,,,,,,,,A (>90% degradation (24 hr treatment)),A (>90% degradation (24 hr treatment)),
N#Cc1ccc(O[C@H]2CC[C@H](Nc3ccc(C(=O)N4CCN(C5CCN(c6ccc7c(c6)C(=O)N(C6CCC(=O)NC6=O)C7=O)CC5)CC4)cc3)CC2)cc1Cl (stereo partly drawn) [Cpd. No. 12],,,,,,,,,,,,,,C (>10% degradation but <50% (24 hr treatment)),A (>90% degradation (24 hr treatment)),
"CN(c1ccc(C#N)c(Cl)c1)[C@H]1CC[C@H](NC(=O)c2ccc(N3CCN(C4CN(c5ccc6c(c5)C(=O)N(C5CCC(=O)NC5=O)C6=O)C4)CC3)cc2)CC1 (stereo partly drawn) [Cpd. No. 31, N-((1r,4r)-4-((3-chloro-4-cyanophenyl)(methyl)amino)cyclohexyl)-4-(4-(1-(2-(2,6-dioxopiperidin-3-yl)-1,3-dioxoisoindolin-5-yl)azetidin-3-yl)piperazin-1-yl)benzamide]",,,,,,,,,,,,,,A (>90% degradation (24 hr treatment)),A (>90% degradation (24 hr treatment)),
